# From patent publication US20250026766A1, “Thiazolopyridyl Amide Derivatives as DNA Polymerase Theta Inhibitors” (BeiGene, Ltd., priority 2022, published 2025)
# Target: Pol Theta (1-894) (Homo sapiens (Human), UniProt O75417)
# Test: Biochemical Pol Theta (1-894) ATPase IC50 assay (ADP-Glo, ssDNA substrate)
# Settings: ADP-Glo assay with ssDNA substrate, room temperature
# In short: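 His-tagged human Pol Theta 1-894 from Sf9 baculovirus cells, 2× enzyme solution at 12.5 nM, assayed with ssDNA substrate at room temperature in 40 mM Tris pH 7.5, 20 mM MgCl2, 1 mM DTT, 0.01% BSA, 0.05% Tween-20.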
# Pol Theta (1-894), sequence (O75417 1-894): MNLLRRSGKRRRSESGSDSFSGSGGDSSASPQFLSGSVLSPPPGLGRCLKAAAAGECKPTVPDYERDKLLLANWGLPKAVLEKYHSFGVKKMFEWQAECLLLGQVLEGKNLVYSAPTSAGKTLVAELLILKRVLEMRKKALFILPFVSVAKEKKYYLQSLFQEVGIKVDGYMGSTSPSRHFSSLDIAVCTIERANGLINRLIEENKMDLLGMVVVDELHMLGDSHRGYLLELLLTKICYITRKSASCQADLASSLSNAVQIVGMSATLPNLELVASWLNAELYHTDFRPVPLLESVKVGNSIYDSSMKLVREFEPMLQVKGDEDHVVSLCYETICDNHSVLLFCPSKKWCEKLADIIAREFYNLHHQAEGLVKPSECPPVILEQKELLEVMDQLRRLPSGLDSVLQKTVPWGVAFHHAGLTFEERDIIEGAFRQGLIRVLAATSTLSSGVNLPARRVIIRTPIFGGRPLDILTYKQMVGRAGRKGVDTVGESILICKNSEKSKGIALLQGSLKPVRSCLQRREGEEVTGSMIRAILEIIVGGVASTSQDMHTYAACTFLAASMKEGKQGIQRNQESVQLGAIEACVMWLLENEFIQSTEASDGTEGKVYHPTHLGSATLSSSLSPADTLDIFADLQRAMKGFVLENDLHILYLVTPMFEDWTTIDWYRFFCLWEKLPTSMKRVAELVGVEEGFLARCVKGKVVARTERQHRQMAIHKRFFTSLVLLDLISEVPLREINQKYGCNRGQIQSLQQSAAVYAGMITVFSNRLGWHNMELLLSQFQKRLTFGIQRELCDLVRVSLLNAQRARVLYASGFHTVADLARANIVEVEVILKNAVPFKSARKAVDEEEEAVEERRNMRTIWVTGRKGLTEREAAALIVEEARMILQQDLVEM
row,IC50 [nM],SMILES
1,167,"COc1ccccc1-c1cnncc1C(=O)Nc1nc2ccc(C(=O)NC3CCOCC3)nc2s1 [Example 113, 2-(5-(2-methoxyphenyl)pyridazine-4-carboxamido)-N-(tetrahydro-2H-pyran-4-yl)thiazolo[5,4-b]pyridine-5-carboxamide]"
2,4.1,"COc1ccc(C#N)cc1-c1cc(C)ncc1C(=O)Nc1nc2ccc(-c3ccc(NS(C)(=O)=O)c(F)c3)nc2s1 [Example 90, 4-(5-cyano-2-methoxyphenyl)-N-(5-(3-fluoro-4-(methylsulfonamido)phenyl)thiazolo[5,4-b]pyridin-2-yl)-6-methylnicotinamide]"
3,7.5,"COc1ccc(C#N)cc1-c1cc(C)ncc1C(=O)Nc1nc2ccc(-c3ccc(C#N)cc3C)nc2s1 [Example 169, 4-(5-cyano-2-methoxyphenyl)-N-(5-(4-cyano-2-methylphenyl)thiazolo[5,4-b]pyridin-2-yl)-6-methylnicotinamide]"
4,218,"COc1ccc(C#N)cc1-c1cc(C)ncc1C(=O)Nc1nc2ccc(-c3ccc(NC(=O)C(C)C)cc3)nc2s1 [Example 50, 4-(5-cyano-2-methoxyphenyl)-N-(5-(4-isobutyramidophenyl)thiazolo[5,4-b]pyridin-2-yl)-6-methylnicotinamide]"
5,8.9,"COc1ccccc1-c1cnncc1C(=O)Nc1nc2ccc(-c3ccc(NC(C)=O)c(C)c3)nc2s1 [Example 165, N-(5-(4-acetamido-3-methylphenyl)thiazolo[5,4-b]pyridin-2-yl)-5-(2-methoxyphenyl)pyridazine-4-carboxamide]"
6,41,"COCc1ccc(-c2ccc3nc(NC(=O)c4cnc(C)cc4-c4cc(C#N)ccc4OC)sc3n2)cc1 [Example 79, 4-(5-cyano-2-methoxyphenyl)-N-(5-(4-(methoxymethyl)phenyl)thiazolo[5,4-b]pyridin-2-yl)-6-methylnicotinamide]"
7,91,"CCC(=O)Nc1ccc(-c2ccc3nc(NC(=O)c4cnc(C)cc4-c4cc(C#N)ccc4OC)sc3n2)cc1 [Example 41, 4-(5-cyano-2-methoxyphenyl)-6-methyl-N-(5-(4-propionamidophenyl)thiazolo[5,4-b]pyridin-2-yl)nicotinamide]"
8,20,"COc1ccccc1-c1cnncc1C(=O)Nc1nc2ccc(-c3ccc(N4CCCC4=O)cc3)nc2s1 [Example 93, 5-(2-methoxyphenyl)-N-(5-(4-(2-oxopyrrolidin-1-yl)phenyl)thiazolo[5,4-b]pyridin-2-yl)pyridazine-4-carboxamide]"
9,32,"COc1c(F)cccc1-c1cc(C)ncc1C(=O)Nc1nc2ccc(-c3ccc(C#N)cc3)nc2s1 [Example 75, N-(5-(4-cyanophenyl)thiazolo[5,4-b]pyridin-2-yl)-4-(3-fluoro-2-methoxyphenyl)-6-methylnicotinamide]"
10,11,"COc1ccccc1-c1cnncc1C(=O)Nc1nc2ccc(-c3ccc(NC(=O)CO)cc3)nc2s1 [Example 111, N-(5-(4-(2-hydroxyacetamido)phenyl)thiazolo[5,4-b]pyridin-2-yl)-5-(2-methoxyphenyl)pyridazine-4-carboxamide]"
11,263,"COc1ccccc1-c1cnncc1C(=O)Nc1nc2ccc(C(C)c3ccc(Cl)cc3)nc2s1 (stereo not drawn) [Example 138, N-(5-(1-(4-chlorophenyl)ethyl)thiazolo[5,4-b]pyridin-2-yl)-5-(2-methoxyphenyl)pyridazine-4-carboxamide]"
12,60,"COc1cc(Cl)ccc1-c1ccc2nc(NC(=O)c3cnncc3-c3ccccc3OC)sc2n1 [Example 96, N-(5-(4-chloro-2-methoxyphenyl)thiazolo[5,4-b]pyridin-2-yl)-5-(2-methoxyphenyl)pyridazine-4-carboxamide]"
13,13,"COc1ccc(C#N)cc1-c1cc(C)ncc1C(=O)Nc1nc2ccc(-c3ccc(CC#N)c(C)c3)nc2s1 [Example 171, 4-(5-cyano-2-methoxyphenyl)-N-(5-(4-(cyanomethyl)-3-methylphenyl)thiazolo[5,4-b]pyridin-2-yl)-6-methylnicotinamide]"
14,8.2,"COc1ccccc1-c1cnncc1C(=O)Nc1nc2ccc(-c3ccc(NC(C)=O)cc3)nc2s1 [Example 16, N-(5-(4-acetamidophenyl)thiazolo[5,4-b]pyridin-2-yl)-5-(2-methoxyphenyl)pyridazine-4-carboxamide]"
15,13,"COc1ccc(C#N)cc1-c1cc(C)ncc1C(=O)Nc1nc2ccc(-c3ccc([C@H](C)C#N)cc3)nc2s1 [Example 177B, (S)-4-(5-cyano-2-methoxyphenyl)-N-(5-(4-(1-cyanoethyl)phenyl)thiazolo[5,4-b]pyridin-2-yl)-6-methylnicotinamide]"
16,22,"COc1ccc(C#N)cc1-c1cc(C)ncc1C(=O)Nc1nc2ccc(-c3ccc(C(=O)N4CCC4)cc3)nc2s1 [Example 145, N-(5-(4-(azetidine-1-carbonyl)phenyl)thiazolo[5,4-b]pyridin-2-yl)-4-(5-cyano-2-methoxyphenyl)-6-methylnicotinamide]"
17,186,"CC(=O)Nc1ccc(-c2ccc3nc(NC(=O)c4ccc(C#N)nc4N4CCOCC4)sc3n2)cc1 [Example 5, N-(5-(4-acetamidophenyl)thiazolo[5,4-b]pyridin-2-yl)-6-cyano-2-morpholinonicotinamide]"

row,IC50 [nM],SMILES
1,41,"COc1ccc(C#N)cc1-c1cc(C)ncc1C(=O)Nc1nc2ccc(-c3ccc(N(CCO)S(C)(=O)=O)cc3)nc2s1 [Example 136, 4-(5-cyano-2-methoxyphenyl)-N-(5-(4-(N-(2-hydroxyethyl)methylsulfonamido)phenyl)thiazolo[5,4-b]pyridin-2-yl)-6-methylnicotinamide]"
2,5.8,"COc1ccc(C#N)cc1-c1cc(C)ncc1C(=O)Nc1nc2ccc(-c3ccc(C(N)=O)c(C)c3)nc2s1 [Example 110, N-(5-(4-carbamoyl-3-methylphenyl)thiazolo[5,4-b]pyridin-2-yl)-4-(5-cyano-2-methoxyphenyl)-6-methylnicotinamide]"
3,272,"COc1c(C#N)cccc1-c1cc(C)ncc1C(=O)Nc1nc2ccc(-c3ccc(C#N)cc3)nc2s1 [Example 82, 4-(3-cyano-2-methoxyphenyl)-N-(5-(4-cyanophenyl)thiazolo[5,4-b]pyridin-2-yl)-6-methylnicotinamide]"
4,54,"COc1ccc(F)cc1-c1cc(C)ncc1C(=O)Nc1nc2ccc(-c3ccc(NC(C)=O)cc3)nc2s1 [Example 25, N-(5-(4-acetamidophenyl)thiazolo[5,4-b]pyridin-2-yl)-4-(5-fluoro-2-methoxyphenyl)-6-methylnicotinamide]"
5,8.4,"COc1ccccc1-c1cnncc1C(=O)Nc1nc2ccc(-c3c(C)cc(C#N)cc3C)nc2s1 [Example 148, N-(5-(4-cyano-2,6-dimethylphenyl)thiazolo[5,4-b]pyridin-2-yl)-5-(2-methoxyphenyl)pyridazine-4-carboxamide]"
6,35,"COc1ccccc1-c1cnncc1C(=O)Nc1nc2ccc(-c3c(C)cc(Cl)cc3C)nc2s1 [Example 101, N-(5-(4-chloro-2,6-dimethylphenyl)thiazolo[5,4-b]pyridin-2-yl)-5-(2-methoxyphenyl)pyridazine-4-carboxamide]"
7,63,"COc1ccccc1-c1cnncc1C(=O)Nc1nc2ccc(-c3ccc(C(=O)NC(C)C)cc3)nc2s1 [Example 102, N-(5-(4-(isopropylcarbamoyl)phenyl)thiazolo[5,4-b]pyridin-2-yl)-5-(2-methoxyphenyl)pyridazine-4-carboxamide]"
8,57,"COc1ccc(C#N)cc1-c1cc(C)ncc1C(=O)Nc1nc2ccc(-c3ccc(C4(C#N)CC4)cc3)nc2s1 [Example 29, 4-(5-cyano-2-methoxyphenyl)-N-(5-(4-(1-cyanocyclopropyl)phenyl)thiazolo[5,4-b]pyridin-2-yl)-6-methylnicotinamide]"
9,94,"CCS(=O)(=O)Nc1ccc(-c2ccc3nc(NC(=O)c4cnc(C)cc4-c4cc(C#N)ccc4OC)sc3n2)cc1 [Example 35, 4-(5-cyano-2-methoxyphenyl)-N-(5-(4-(ethylsulfonamido)phenyl)thiazolo[5,4-b]pyridin-2-yl)-6-methylnicotinamide]"
10,143,"COc1ccccc1-c1cc(C)ncc1C(=O)Nc1nc2ccc(-c3ccc(Cl)cc3)nc2s1 [Example 14, N-(5-(4-chlorophenyl)thiazolo[5,4-b]pyridin-2-yl)-4-(2-methoxyphenyl)-6-methylnicotinamide]"
11,14,"COc1ccc(C#N)cc1-c1cc(C)ncc1C(=O)Nc1nc2ccc(-c3ccc(CO)cc3)nc2s1 [Example 44, 4-(5-cyano-2-methoxyphenyl)-N-(5-(4-(hydroxymethyl)phenyl)thiazolo[5,4-b]pyridin-2-yl)-6-methylnicotinamide]"
12,54,"COc1ccccc1-c1cnncc1C(=O)Nc1nc2ccc(C(=O)c3ccc(Cl)cc3)nc2s1 [Example 137, N-(5-(4-chlorobenzoyl)thiazolo[5,4-b]pyridin-2-yl)-5-(2-methoxyphenyl)pyridazine-4-carboxamide]"
13,36,"COc1cc(-c2ccc3nc(NC(=O)c4cnc(C)cc4-c4cc(C#N)ccc4OC)sc3n2)ccc1C#N [Example 161, 4-(5-cyano-2-methoxyphenyl)-N-(5-(4-cyano-3-methoxyphenyl)thiazolo[5,4-b]pyridin-2-yl)-6-methylnicotinamide]"
14,60,"COc1cc(Cl)ccc1Oc1ccc2nc(NC(=O)c3cnncc3-c3ccccc3OC)sc2n1 [Example 154, N-(5-(4-chloro-2-methoxyphenoxy)thiazolo[5,4-b]pyridin-2-yl)-5-(2-methoxyphenyl)pyridazine-4-carboxamide]"
15,64,"COc1ccc(C#N)cc1-c1cc(C)ncc1C(=O)Nc1nc2ccc(C3CCOCC3)nc2s1 [Example 67, 4-(5-cyano-2-methoxyphenyl)-6-methyl-N-(5-(tetrahydro-2H-pyran-4-yl)thiazolo[5,4-b]pyridin-2-yl)nicotinamide]"
16,70,"COc1cccc(F)c1-c1cnccc1C(=O)Nc1nc2ccc(-c3ccc(NC(C)=O)cc3)nc2s1 [Example 31, N-(5-(4-acetamidophenyl)thiazolo[5,4-b]pyridin-2-yl)-3-(2-fluoro-6-methoxyphenyl)isonicotinamide]"
